Legend:
[1] = system: TK-10; experiment: Inhibition of growth of TK-10 renal cancer cell line; format: functional; details: Homo sapiens
[2] = biological target: Bifunctional dihydrofolate reductase-thymidylate synthase (Toxoplasma gondii, UniProt Q07422); experiment: Inhibition of Toxoplasma gondii dihydrofolate reductase (DHFR)
[3] = system: UO-31; experiment: Inhibition of growth of UO-31 renal cancer cell line; format: functional; details: Homo sapiens
[4] = system: HT-29; experiment: Inhibition of growth of HT 29colon cancer cell line; format: functional; details: Homo sapiens
[5] = system: A549; experiment: Inhibition of growth of A549/ATCC nonsmall cell lung cancer cell line; format: functional; details: Homo sapiens
[6] = Inhibition of growth of IGROV1 ovarian cancer cell line; format: functional; details: Homo sapiens, IGROV-1
[7] = Inhibition of growth of R30dm (n=2); format: functional, Homo sapiens
[8] = system: MDA-MB-435; experiment: Inhibition of growth of MDA-MB-435 breast cancer cell line; format: functional; details: Homo sapiens
[9] = biological target: Thymidylate synthase (Escherichia coli, UniProt C3SWJ7); experiment: Inhibition of Escherichia coli thymidylate synthase (TS)
[10] = system: SF-295; experiment: Inhibition of growth of SF-295 CNS cancer cell line; format: functional; details: Homo sapiens
[11] = system: CCRF-CEM; experiment: Inhibition of growth of CCRF-CEM leukemia cell line; format: functional; details: Homo sapiens
[12] = biological target: Thymidylate synthase (Homo sapiens, UniProt P04818); experiment: Inhibition of recombinant human thymidylate synthase (TS)
[13] = system: OVCAR-5; experiment: Inhibition of growth of OVCAR-5 ovarian cancer cell line; format: functional; details: Homo sapiens
[14] = system: CAKI-1; experiment: Inhibition of growth of CAKI-1 renal cancer cell line; format: functional; details: Homo sapiens
[15] = biological target: Dihydrofolate reductase (Escherichia coli, UniProt P0ABQ4); experiment: Inhibition of Escherichia coli dihydrofolate reductase (DHFR)
[16] = system: MDA-N; experiment: Inhibition of growth of MDA-Nbreast cancer cell line; format: functional; details: Homo sapiens
[17] = system: LOX IMVI; experiment: Inhibition of growth of LOX IMVI melanoma cell line; format: functional; details: Homo sapiens
[18] = system: R1; experiment: Inhibition of growth of R1(n=2); details: Homo sapiens
[19] = system: HCT-15; experiment: Inhibition of growth of HCT -15 colon cancer cell line; format: functional; details: Homo sapiens
[20] = system: SF-539; experiment: Inhibition of growth of SF-539 CNS cancer cell line; format: functional; details: Homo sapiens
[21] = system: SK-MEL-5; experiment: Inhibition of growth of SK-MEL5 melanoma cell line; format: functional; details: Homo sapiens
[22] = system: SF-268; experiment: Inhibition of growth of SF-268 CNS cancer cell line; format: functional; details: Homo sapiens
[23] = system: ACHN; experiment: Inhibition of growth of ACHN renal cancer cell line; format: functional; details: Homo sapiens
[24] = system: MCF7; experiment: Inhibition of growth of MCF-7 breast cancer cell line; format: functional; details: Homo sapiens
[25] = system: NCI-H522; experiment: Inhibition of growth of NCI- H522 nonsmall cell lung cancer cell line; format: functional; details: Homo sapiens
[26] = system: SW-620; experiment: Inhibition of growth of SW -620 colon cancer cell line; format: functional; details: Homo sapiens
[27] = system: HL-60; experiment: Inhibition of growth of HL-60 leukemia cell line; format: functional; details: Homo sapiens
[28] = system: RPMI-8226; experiment: Inhibition of growth of RPMI-8226 leukemia cell line; format: functional; details: Homo sapiens
[29] = system: SR; experiment: Inhibition of growth of SR leukemia cell line; format: functional; details: Homo sapiens
[30] = system: CCRF-CEM; experiment: Inhibition of growth of CCRF-CEM human leukemia cells (n=2); format: functional, cell-based
[31] = system: NCI-H460; experiment: Inhibition of growth of NCI-H460 nonsmall cell lung cancer cell line; format: functional; details: Homo sapiens
[32] = system: U-251; experiment: Inhibition of growth of U251 CNS cancer cell line; format: functional; details: Homo sapiens
[33] = biological target: Dihydrofolate reductase (Homo sapiens, UniProt P00374)
Description: Inhibition of rh dihydrofolate reductase (DHFR)

[34] = system: K562; experiment: Inhibition of growth of K-562 leukemia cell line; format: functional; details: Homo sapiens
[35] = system: R2; experiment: Inhibition of growth of R2(n=2); format: functional, cell-based; details: Homo sapiens
[36] = system: R2; experiment: Inhibition of growth of R2 (n=2); format: functional, cell-based; details: Homo sapiens
[37] = system: R1; experiment: Inhibition of growth of R1 (n=2); details: Homo sapiens
[38] = substrate: Nc1nc(N)c2nc(CNc3ccc(C(=O)N[C@@H](CCC(=O)O)C(=O)O)cc3)cnc2n1; experiment: folyl-poly-glutamate synthetase activity measured as Vmax; rel means relative
[39] = substrate: CCC(Cc1coc2nc(N)cc(N)c12)c1ccc(C(=O)NC(CCC(=O)O)C(=O)O)cc1; experiment: (§1) folyl-poly-glutamate synthetase activity measured as Km
[40] = substrate: Nc1nc(N)c2nc(CNc3ccc(C(=O)N[C@@H](CCC(=O)O)C(=O)O)cc3)cnc2n1; experiment: as §1
[41] = substrate: CCC(Cc1coc2nc(N)cc(N)c12)c1ccc(C(=O)NC(CCC(=O)O)C(=O)O)cc1; experiment: folyl-poly-glutamate synthetase activity measured as Vmax

Chain of Bifunctional dihydrofolate reductase-thymidylate synthase (Q07422 whole entry): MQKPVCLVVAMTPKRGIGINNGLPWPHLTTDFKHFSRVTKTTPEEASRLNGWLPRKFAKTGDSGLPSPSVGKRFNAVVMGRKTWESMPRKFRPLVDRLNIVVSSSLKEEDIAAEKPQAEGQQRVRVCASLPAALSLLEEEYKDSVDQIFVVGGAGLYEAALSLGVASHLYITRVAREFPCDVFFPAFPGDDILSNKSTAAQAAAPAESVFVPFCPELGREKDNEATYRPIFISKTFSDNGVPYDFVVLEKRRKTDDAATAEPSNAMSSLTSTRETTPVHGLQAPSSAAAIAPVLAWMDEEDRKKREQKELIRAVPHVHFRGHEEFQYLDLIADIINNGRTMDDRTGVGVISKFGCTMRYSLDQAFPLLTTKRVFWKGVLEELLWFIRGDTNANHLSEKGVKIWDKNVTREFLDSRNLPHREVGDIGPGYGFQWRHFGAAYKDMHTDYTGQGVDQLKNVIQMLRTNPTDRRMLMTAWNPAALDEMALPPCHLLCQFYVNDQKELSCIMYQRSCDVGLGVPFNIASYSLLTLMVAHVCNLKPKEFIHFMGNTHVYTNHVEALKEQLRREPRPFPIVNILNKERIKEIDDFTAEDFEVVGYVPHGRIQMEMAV
Chain of Thymidylate synthase (Homo sapiens, UniProt P04818) (P04818 whole entry): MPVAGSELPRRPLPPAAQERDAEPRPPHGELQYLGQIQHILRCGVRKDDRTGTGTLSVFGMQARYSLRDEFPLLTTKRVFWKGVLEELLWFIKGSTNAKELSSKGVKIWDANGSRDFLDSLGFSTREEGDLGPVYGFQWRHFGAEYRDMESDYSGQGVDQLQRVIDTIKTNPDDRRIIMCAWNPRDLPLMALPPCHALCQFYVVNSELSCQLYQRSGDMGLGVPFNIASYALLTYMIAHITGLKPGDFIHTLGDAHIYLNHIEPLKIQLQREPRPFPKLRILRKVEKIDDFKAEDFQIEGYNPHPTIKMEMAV
Chain of Thymidylate synthase (Escherichia coli, UniProt C3SWJ7) (C3SWJ7 whole entry): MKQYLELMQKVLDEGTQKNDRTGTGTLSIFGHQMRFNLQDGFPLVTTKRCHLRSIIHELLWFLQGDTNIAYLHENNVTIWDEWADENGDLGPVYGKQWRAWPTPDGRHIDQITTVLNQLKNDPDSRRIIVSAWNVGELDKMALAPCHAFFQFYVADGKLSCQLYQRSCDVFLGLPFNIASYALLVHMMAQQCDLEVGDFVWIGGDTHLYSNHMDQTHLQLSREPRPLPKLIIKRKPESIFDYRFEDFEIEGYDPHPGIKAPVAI
Chain of Dihydrofolate reductase (Homo sapiens, UniProt P00374) (P00374 whole entry): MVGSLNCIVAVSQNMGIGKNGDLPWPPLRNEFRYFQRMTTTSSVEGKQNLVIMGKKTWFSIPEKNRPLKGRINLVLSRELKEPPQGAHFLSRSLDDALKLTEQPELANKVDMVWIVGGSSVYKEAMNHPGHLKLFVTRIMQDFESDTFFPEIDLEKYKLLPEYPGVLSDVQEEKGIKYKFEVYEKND
Chain of Dihydrofolate reductase (Escherichia coli, UniProt P0ABQ4) (P0ABQ4 whole entry): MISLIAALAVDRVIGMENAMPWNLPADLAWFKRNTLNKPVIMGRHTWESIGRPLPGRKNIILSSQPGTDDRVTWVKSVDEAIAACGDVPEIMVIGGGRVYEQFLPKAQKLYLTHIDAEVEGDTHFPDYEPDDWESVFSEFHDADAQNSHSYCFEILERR

With `CCC(Cc1coc2nc(N)cc(N)c12)c1ccc(C(=O)NC(CCC(=O)O)C(=O)O)cc1` (configuration not stated) the GI50 [1] was 340 nM, the IC50 [2] was 1100 nM and the GI50 [3] was less than 10 nM. For the same molecule, the GI50 [4] was 23.9 nM, the GI50 [5] was 13.8 nM and the GI50 [6] was less than 10 nM. For the same molecule, the EC50 [7] was 50 nM, the GI50 [8] was less than 10 nM and the IC50 [9] was 220000 nM. The GI50 [10] was less than 10 nM, the GI50 [11] was less than 10 nM and the IC50 [12] was 220000 nM. The GI50 [13] was less than 10 nM, the GI50 [14] was less than 10 nM and the IC50 [15] was 440 nM. The GI50 [16] was less than 10 nM, the GI50 [17] was 23.7 nM and the EC50 [18] was 2100 nM. It also gave a GI50 [19] of less than 10 nM, a GI50 [20] of less than 10 nM and a GI50 [21] of 81.8 nM. It also gave a GI50 [22] of less than 10 nM, a GI50 [23] of less than 10 nM and a GI50 [24] of less than 10 nM. It also gave a GI50 [25] of less than 10 nM, a GI50 [26] of less than 10 nM and a GI50 [27] of less than 10 nM. It also gave a GI50 [28] of less than 10 nM, a GI50 [29] of less than 10 nM and an EC50 [30] of 35.5 nM. It also gave a GI50 [31] of less than 10 nM, a GI50 [32] of 23.2 nM and an IC50 [33] of 220 nM. The GI50 [34] was less than 10 nM and the EC50 [35] was 890 nM.

For `CN(Cc1cnc2nc(N)nc(N)c2n1)c1ccc(C(=O)N[C@@H](CCC(=O)O)C(=O)O)cc1` [METHOTREXATE], the EC50 [7] was 15 nM, the EC50 [36] was 2600 nM and the EC50 [37] was 1050 nM.

B1: Folylpolyglutamate synthase, mitochondrial (Homo sapiens), Q05932 (protein)
chain: MSRARSHLRAALFLAAASARGITTQVAARRGLSAWPVPQEPSMEYQDAVRMLNTLQTNAGYLEQVKRQRGDPQTQLEAMELYLARSGLQVEDLDRLNIIHVTGTKGKGSTCAFTECILRSYGLKTGFFSSPHLVQVRERIRINGQPISPELFTKYFWRLYHRLEETKDGSCVSMPPYFRFLTLMAFHVFLQEKVDLAVVEVGIGGAYDCTNIIRKPVVCGVSSLGIDHTSLLGDTVEKIAWQKGGIFKQGVPAFTVLQPEGPLAVLRDRAQQISCPLYLCPMLEALEEGGPPLTLGLEGEHQRSNAALALQLAHCWLQRQDRHGAGEPKASRPGLLWQLPLAPVFQPTSHMRLGLRNTEWPGRTQVLRRGPLTWYLDGAHTASSAQACVRWFRQALQGRERPSGGPEVRVLLFNATGDRDPAALLKLLQPCQFDYAVFCPNLTEVSSTGNADQQNFTVTLDQVLLRCLEHQQHWNHLDEEQASPDLWSAPSPEPGGSASLLLAPHPPHTCSASSLVFSCISHALQWISQGRDPIFQPPSPPKGLLTHPVAHSGASILREAAAIHVLVTGSLHLVGGVLKLLEPALSQ
With B1 the Vmax [38] was 1 rel, the Km [39] was 1.1 µM and the Km [40] was 3.2 µM. The Vmax [41] was 0.37 rel.
